In patent US20250302080A1, “SWEETNESS AND/OR FLAVOR ENHANCER” (AJINOMOTO CO., INC., priority 2022, published 2025):

Legend:
[1] = Sensory evaluation of sweetness intensity in sucralose solution (Experimental Examples 23-24); conditions: for sweetness intensity: average score
Description: A negative control sucralose solution (0.0140 wt % sucralose solution) was prepared by dissolving sucralose in filtered water.
(§1) A sensory evaluation of sweetness intensity was performed for each sample by a panel of four experts according to the following evaluation criteria.
Sweetness intensity was evaluated by 0.0 to 10.0 point based on the following reference samples (negative control (hereinafter referred to as NC) (0.0 point); reference 1 (hereinafter referred to as R1) (3.0 points), reference 2 (hereinafter referred to as R2) (5.0 points); reference 3 (hereinafter referred to as R3) (10.0 points)). The average score (rounded to two decimal places) of each expert panelist was calculated. An average score of 3.0 points or more was considered to be functional. • NC (0.0 point): 0.0140 wt % sucralose solution (solvent: filtered water) • R1 (3.0 points): 0.0164 wt % sucralose solution (solvent: filtered water) • R2 (5.0 points): 0.0180 wt % sucralose solution (solvent: filtered water) • R3 (10.0 points): 0.0220 wt % sucralose solution (solvent: filtered water)
A sensory evaluation of sweetness intensity was performed for each sample by a panel of four experts according to the same evaluation criteria as in Experimental Example 23.

[2] = Sensory evaluation of sweetness intensity in RebA solution, four reference samples (Experimental Examples 17-19); conditions: for concentration at which a sweetness-enhancing effect was confirmed: added alone, 3.0 points or more
Description: A negative control RebA solution (0.073 wt % RebA solution) was prepared by dissolving RebA in filtered water.
as §1
Sweetness intensity was evaluated by 0.0 to 10.0 points based on the following reference samples (negative control (hereinafter referred to as NC) (0.0 point); reference 1 (hereinafter referred to as R1) (3.2 points), reference 2 (hereinafter referred to as R2) (5.0 points); reference 3 (hereinafter referred to as R3) (10.0 points)). The average score (rounded to two decimal places) of each expert panelist was calculated. An average score of 3.0 points or more was considered to be functional. • NC (0.0 point): 0.073 wt % RebA solution (solvent: filtered water) • R1 (3.2 points): 0.073 wt % RebA solution (solvent: filtered water)+decanoic acid (10 ppb) • R2 (5.0 points): 0.077 wt % RebA solution (solvent: filtered water) • R3 (10.0 points): 0.080 wt % RebA solution (solvent: filtered water)
A sensory evaluation of sweetness intensity was performed for each sample by a panel of four experts according to the same evaluation criteria as in Experimental Example 17.

[3] = Sensory evaluation of sweetness intensity in RebM solution (Experimental Examples 20-21)
Description: A negative control RebM solution (0.063 wt % RebM solution) was prepared by dissolving RebM in filtered water.
as §1
Sweetness intensity was evaluated by 0.0 to 10.0 points based on the following reference samples (negative control (hereinafter referred to as NC) (0.0 point); reference 1 (hereinafter referred to as R1) (3.0 points), reference 2 (hereinafter referred to as R2) (5.0 points); reference 3 (hereinafter referred to as R3) (10.0 points)). The average score (rounded to two decimal places) of each expert panelist was calculated. An average score of 3.0 points or more was considered to be functional. • NC (0.0 point): 0.063 wt % RebM solution (solvent: filtered water) • R1 (3.0 points): 0.063 wt % RebM solution (solvent: filtered water)+dodecanoic acid (1 ppb) • R2 (5.0 points): 0.066 wt % RebM solution (solvent: filtered water) • R3 (10.0 points): 0.069 wt % RebM solution (solvent: filtered water)
A sensory evaluation of sweetness intensity was performed for each sample by a panel of four experts according to the same evaluation criteria as in Experimental Example 20.

[4] = Sensory evaluation of sweetness intensity in aspartame solution, four reference samples (Experimental Example 22)
Description: A negative control aspartame solution (0.063 wt % aspartame solution) was prepared by dissolving aspartame in filtered water.
as §1
Sweetness intensity was evaluated by 0.0 to 10.0 point based on the following reference samples (negative control (hereinafter referred to as NC) (0.0 point); reference 1 (hereinafter referred to as R1) (3.2 points), reference 2 (hereinafter referred to as R2) (5.0 points); reference 3 (hereinafter referred to as R3) (10.0 points)). The average score (rounded to two decimal places) of each expert panelist was calculated. An average score of 3.0 points or more was considered to be functional. • NC (0.0 point): 0.063 wt % aspartame solution (solvent: filtered water) • R1 (3.2 points): 0.063 wt % aspartame solution (solvent: filtered water)+decanoic acid (10 ppb) • R2 (5.0 points): 0.066 wt % aspartame solution (solvent: filtered water) • R3 (10.0 points): 0.069 wt % aspartame solution (solvent: filtered water)

[5] = added alone at 0.001 ppb to 0.0140 wt % sucralose solution
[6] = added alone at 0.01 ppb to 0.0140 wt % sucralose solution
[7] = added alone at 0.1 ppb to 0.0140 wt % sucralose solution
[8] = added alone at 1 ppb to 0.0140 wt % sucralose solution
[9] = added alone at 10 ppb to 0.0140 wt % sucralose solution
[10] = added alone at 100 ppb to 0.0140 wt % sucralose solution
[11] = added alone at 1000 ppb to 0.0140 wt % sucralose solution
[12] = added alone at 10000 ppb to 0.0140 wt % sucralose solution

Compound	sweetness intensity [1, 5] [points]	sweetness intensity [1, 6] [points]	sweetness intensity [1, 7] [points]	sweetness intensity [1, 8] [points]	sweetness intensity [1, 9] [points]	sweetness intensity [1, 10] [points]	sweetness intensity [1, 11] [points]	sweetness intensity [1, 12] [points]	sweetness intensity ([2]; acid added alone at 0.001 ppb) [points]	sweetness intensity ([2]; acid added alone at 0.01 ppb) [points]	sweetness intensity ([2]; acid added alone at 0.1 ppb) [points]	sweetness intensity ([2]; acid added alone at 1 ppb) [points]	sweetness intensity ([2]; acid added alone at 10 ppb) [points]	sweetness intensity ([2]; acid added alone at 100 ppb) [points]	sweetness intensity ([2]; acid added alone at 1000 ppb) [points]	sweetness intensity ([2]; acid added alone at 10000 ppb) [points]	concentration at which a sweetness-enhancing effect was confirmed [2] [ppb]	sweetness intensity ([3]; acid added alone at 0.001 ppb) [points]	sweetness intensity ([3]; acid added alone at 0.01 ppb) [points]	sweetness intensity ([3]; acid added alone at 0.1 ppb) [points]	also measured
CCCCCCCCCCCC(=O)O [dodecanoic acid]	1.0	1.6	2.0	2.5	3.0	3.5	3.9	3.7	0.6	1.3	2.3	4.2	5.0	5.7	6.0	6.0	≥ 1	0.8	1.7	2.5	concentration at which a sweetness-enhancing effect was confirmed ([1]; sucralose solution, added alone, 3.0 points or more): ≥ 10 ppb; sweetness intensity ([3]; acid added alone at 1 ppb): 3.0 points; sweetness intensity ([3]; acid added alone at 10 ppb): 5.0 points; sweetness intensity ([3]; acid added alone at 100 ppb): 4.6 points; sweetness intensity ([3]; acid added alone at 1000 ppb): 4.7 points; sweetness intensity ([3]; acid added alone at 10000 ppb): 4.8 points; sweetness intensity ([4]; acid added alone at 0.001 ppb): 1.7 points; sweetness intensity ([4]; acid added alone at 0.01 ppb): 2.2 points; sweetness intensity ([4]; acid added alone at 0.1 ppb): 2.7 points; sweetness intensity ([4]; acid added alone at 1 ppb): 3.3 points; sweetness intensity ([4]; acid added alone at 10 ppb): 4.2 points; sweetness intensity ([4]; acid added alone at 100 ppb): 4.9 points; sweetness intensity ([4]; acid added alone at 1000 ppb): 5.5 points; sweetness intensity ([4]; acid added alone at 10000 ppb): 6.1 points
CCCCCCCCCCC(=O)O [undecanoic acid]	0.9	1.3	1.7	2.1	2.8	3.1	3.4	3.2	0.3	1.9	3.5	4.5	5.4	6.0	6.2	5.7	≥ 0.1	1.3	2.0	2.4	sweetness intensity ([3]; acid added alone at 1 ppb): 2.9 points; sweetness intensity ([3]; acid added alone at 10 ppb): 3.3 points; sweetness intensity ([3]; acid added alone at 100 ppb): 3.9 points; sweetness intensity ([3]; acid added alone at 1000 ppb): 4.4 points; sweetness intensity ([3]; acid added alone at 10000 ppb): 4.1 points; sweetness intensity ([4]; acid added alone at 0.001 ppb): 1.3 points; sweetness intensity ([4]; acid added alone at 0.01 ppb): 2.1 points; sweetness intensity ([4]; acid added alone at 0.1 ppb): 2.8 points; sweetness intensity ([4]; acid added alone at 1 ppb): 3.2 points; sweetness intensity ([4]; acid added alone at 10 ppb): 3.8 points; sweetness intensity ([4]; acid added alone at 100 ppb): 4.1 points; sweetness intensity ([4]; acid added alone at 1000 ppb): 4.7 points; sweetness intensity ([4]; acid added alone at 10000 ppb): 5.5 points
CCCCCCCC(=O)O [octanoic acid]	0.5	1.3	1.8	2.3	2.9	3.3	4.0	4.5	0.3	0.4	0.9	1.3	2.0	2.6	3.7	4.0	≥ 1000	1.1	1.8	2.7	sweetness intensity ([3]; acid added alone at 1 ppb): 3.3 points; sweetness intensity ([3]; acid added alone at 10 ppb): 4.3 points; sweetness intensity ([3]; acid added alone at 100 ppb): 4.3 points; sweetness intensity ([3]; acid added alone at 1000 ppb): 4.4 points; sweetness intensity ([3]; acid added alone at 10000 ppb): 4.3 points; sweetness intensity ([4]; acid added alone at 0.001 ppb): 0.6 points; sweetness intensity ([4]; acid added alone at 0.01 ppb): 1.4 points; sweetness intensity ([4]; acid added alone at 0.1 ppb): 2.2 points; sweetness intensity ([4]; acid added alone at 1 ppb): 2.9 points; sweetness intensity ([4]; acid added alone at 10 ppb): 3.4 points; sweetness intensity ([4]; acid added alone at 100 ppb): 3.9 points; sweetness intensity ([4]; acid added alone at 1000 ppb): 4.3 points; sweetness intensity ([4]; acid added alone at 10000 ppb): 4.6 points; concentration at which a sweetness-enhancing effect was confirmed ([4]; added alone, 3.0 points or more): ≥ 10 ppb
